In ChEMBL document CHEMBL4321844, “Rational Design and Optimization of a Novel Class of Macrocyclic Apoptosis Signal-Regulating Kinase 1 Inhibitors” (J Med Chem, 2019):

Experiment: Unbound brain to plasma concentration ratio, Kp of the compound in rat at 1 mg/kg, iv for 4 hrs by LC-MS/MS analysis
Type: ADME, organism-based
Conditions: brain and plasma, read-out: K(p,uu,brain)

Kp uu at 4 h | SMILES
1 | CN(C)CCn1cc(-c2ccc3c(c2)C(=O)Nc2cccc(n2)-c2nncn2CCCCO3)cn1
0.17 | C[C@@H]1CCOc2cc(F)ccc2C(=O)Nc2cccc(n2)-c2nncn2C1
0.09 | C[C@H]1CCCOc2cc(F)ccc2C(=O)Nc2cccc(n2)-c2nncn21
< 0.1 | Cc1cn(-c2ccc3c(c2)C(=O)Nc2cccc(n2)-c2nncn2CCCCO3)cn1
< 0.1 | C[C@@H]1CCOc2cc(F)c(-c3cnn(CCN(C)C)c3)cc2C(=O)Nc2cccc(n2)-c2nncn2C1
